Tests used:
[1] = Approximate solubility in organic solvents at room temperature; type: physicochemical
[2] = Pharmacokinetic test in SD rats; type: in vivo; settings: rats; for AUC(0-inf) / AUC(0-t) / Cmax / MRT last: 10 mg/kg; for Plasma concentration: 10 mg/kg p.o.
Procedure: Experimental animals: healthy adult SD rats, male, 6 in total, divided into two groups, with 3 rats per group, aged 6-8 weeks; and body weight approximately 200-300 g. The rats were fed in rat cages, and fasted (for at least 10 hours) with free access to water one day before the experiment. On the day of experiment, the rats were weighed and marked at the tail respectively. Blank blood samples were collected respectively before drug administration. The blood samples were collected via the tail vein. Drug administration method: intragastric gavage (p.o.): intragastric gavage with drug suspension; preparation of drug suspension: approximately 10 mg of test sample was accurately weighed, dissolved in 5% DMSO (calculated proportion), and vortexed with 10% solutol HS-15 and 85% saline to obtain a suspension with a concentration of 1.0 mg/mL; and the suspension was freshly prepared before use.
Sample collection: the rats were administered a single oral dose of 10mg/kg via intragastric gavage (p.o.). Timing was started immediately after the administration was completed, and blood samples were collected at 0.5, 1, 2, 4, 6, 8, 12 and 24 hours after administration. A volume of 0.1mL of whole blood was collected into EDTA-Na2 anticoagulant tubes, mixed by inverting 3-4 times, centrifuged at 10000 g for 5 minutes at 4°C to separate the plasma, and then the plasma was stored at -80 °C until testing. The blood samples were collected via the tail vein.
Sample preparation: 1) the samples were thawed, and 15 µL of unknown plasma samples before or after administration, standard series solutions, and single blank and double blank samples were respectively transferred into 1.5 mL centrifuge tubes. 2) 15 µL of protein precipitant (methanol) and 400 µL of internal standard solution (verapamil in methanol, approximately 10 ng/mL) were added to each sample sequentially, vortexed for 2 minutes, and then centrifuged at 4°C and 12000 rpm for 10 minutes. 3) The supernatant was collected for LC-MS/MS detection.
Analytical conditions: liquid chromatography conditions: liquid chromatography system: Shimadzu Nexera X2; chromatographic column: Agilent ZORBAX XDB-C18 3.5 (2.1 × 50 mm); column temperature: 35°C; mobile phase: A-5% acetonitrile (0.1% formic acid in water), B-95% acetonitrile (0.1% formic acid in water); injection volume: 3 µL; and
flow rate: 0.5 mL/min. Gradient elution was employed, and an elution program can be seen in the table below.
Mass spectrometry conditions: mass spectrometric analysis was carried out using an electrospray ionization (ESI) source in a positive ion mode with multiple reaction monitoring (MRM). The mass spectrometer ion source parameters and compound detection parameters can be seen in the table below.
PK parameter processing: pharmacokinetic (PK) parameters were calculated according to a plasma concentration from individual plasma concentration and corresponding sampling time data using Phoenix WinNonlin software with a non-compartmental model. (1) The PK parameters used for pharmacokinetic evaluation included: Cmax, AUC0-t, AUC0-∞, Tmax and t1/2.
(2) The parameters used for bioequivalence evaluation: Cmax, AUC0-t and AUC0-∞ were used for the bioequivalence evaluation.
Cmax: maximum plasma concentration measured within specified period, presented as measured value.
Tmax: time measured to reach maximum plasma concentration, presented as measured value. If the maximum value occurred at more than one time point, Tmax was defined as the first time point at which this value was observed.
AUC0-t: area under plasma concentration-time curve from 0 to last time point t.
AUC0-∞: area under plasma concentration-time curve from 0 to infinity. Ct was the last measured concentration, and λz was the terminal elimination rate constant. AUC0−∞ = AUC0−t + (Ct)/(λz)AUC0−∞ = AUC0−t + (Ct)/(λz) [formula]
t1/2: elimination or terminal half-life, estimated by ln2/λz.

[3] = rat, in vivo, po, intragastric gavage 10 mg/kg, Mean
[4] = rat, in vivo, po, intragastric gavage 10 mg/kg, No. 1
[5] = rat, in vivo, po, intragastric gavage 10 mg/kg, No. 2
[6] = rat, in vivo, po, intragastric gavage 10 mg/kg, No. 3

With `C[C@@H](Nc1ccn2ncc(C3=NOC(C)(C)N3)c2n1)c1cc(F)cc(F)c1F` [crystal form A] the solubility ([1]; Acetone) was over 40 mg/mL, the solubility ([1]; Acetonitrile) was over 44 mg/mL and the solubility ([1]; Dichloromethane) was over 40 mg/mL. It also gave a solubility ([1]; Ethanol) of over 38 mg/mL, a solubility ([1]; Ethyl acetate) of over 44 mg/mL and a solubility ([1]; Isopropanol) of over 42 mg/mL. It also gave a solubility ([1]; Isopropyl acetate) of over 38 mg/mL, a solubility ([1]; Methanol) of over 36 mg/mL and a solubility ([1]; Methyl isobutyl ketone) of over 40 mg/mL. The solubility ([1]; Trichloromethane) was over 44 mg/mL, the AUC(0-inf) [2, 3] was 4800 ng·h/mL and the AUC(0-t) [2, 3] was 4730 ng·h/mL. The Cmax [2, 3] was 578 ng/mL, the MRT last [2, 3] was 6.09 h and the AUC(0-inf) [2, 4] was 4390 ng·h/mL. For the same molecule, the AUC(0-t) [2, 4] was 4320 ng·h/mL, the Cmax [2, 4] was 652 ng/mL and the MRT last [2, 4] was 6.09 h. For the same molecule, the AUC(0-inf) [2, 5] was 3580 ng·h/mL, the AUC(0-t) [2, 5] was 3550 ng·h/mL and the Cmax [2, 5] was 459 ng/mL. It also gave an MRT last [2, 5] of 5.52 h, an AUC(0-inf) [2, 6] of 6440 ng·h/mL and an AUC(0-t) [2, 6] of 6330 ng·h/mL. It also gave a Cmax [2, 6] of 623 ng/mL, an MRT last [2, 6] of 6.66 h and a Tmax [2, 4] of 4 h. For the same molecule, the Plasma concentration ([2]; 0.5 h, Mean) was 224 ng/mL, the Plasma concentration ([2]; 0.5 h, No. 1) was 220 ng/mL and the Plasma concentration ([2]; 0.5 h, No. 2) was 168 ng/mL. The Plasma concentration ([2]; 0.5 h, No. 3) was 285 ng/mL, the Plasma concentration ([2]; 1 h, Mean) was 300 ng/mL and the Plasma concentration ([2]; 1 h, No. 1) was 170 ng/mL. The Plasma concentration ([2]; 1 h, No. 2) was 257 ng/mL, the Plasma concentration ([2]; 1 h, No. 3) was 474 ng/mL and the Plasma concentration ([2]; 2 h, Mean) was 457 ng/mL. It also gave a Plasma concentration ([2]; 2 h, No. 1) of 448 ng/mL, a Plasma concentration ([2]; 2 h, No. 2) of 453 ng/mL and a Plasma concentration ([2]; 2 h, No. 3) of 470 ng/mL. The Plasma concentration ([2]; 4 h, Mean) was 578 ng/mL, the Plasma concentration ([2]; 4 h, No. 1) was 652 ng/mL and the Plasma concentration ([2]; 4 h, No. 2) was 459 ng/mL. It also gave a Plasma concentration ([2]; 4 h, No. 3) of 623 ng/mL, a Plasma concentration ([2]; 6 h, Mean) of 395 ng/mL and a Plasma concentration ([2]; 6 h, No. 1) of 307 ng/mL. It also gave a Plasma concentration ([2]; 6 h, No. 2) of 277 ng/mL, a Plasma concentration ([2]; 6 h, No. 3) of 602 ng/mL and a Plasma concentration ([2]; 8 h, Mean) of 312 ng/mL. The Plasma concentration ([2]; 8 h, No. 1) was 240 ng/mL, the Plasma concentration ([2]; 8 h, No. 2) was 238 ng/mL and the Plasma concentration ([2]; 8 h, No. 3) was 459 ng/mL. For the same molecule, the Plasma concentration ([2]; 12 h, Mean) was 93.8 ng/mL, the Plasma concentration ([2]; 12 h, No. 1) was 88.3 ng/mL and the Plasma concentration ([2]; 12 h, No. 2) was 47.2 ng/mL. It also gave a Plasma concentration ([2]; 12 h, No. 3) of 146 ng/mL, a Plasma concentration ([2]; 24 h, Mean) of 12.7 ng/mL and a Plasma concentration ([2]; 24 h, No. 1) of 11.6 ng/mL. For the same molecule, the Plasma concentration ([2]; 24 h, No. 2) was 5.25 ng/mL, the Plasma concentration ([2]; 24 h, No. 3) was 21.3 ng/mL and the HL_ ([2]; intragastric gavage 10 mg/kg, Mean) was 3.51 h. The HL_ ([2]; intragastric gavage 10 mg/kg, No. 1) was 3.76 h, the HL_ ([2]; intragastric gavage 10 mg/kg, No. 2) was 3.07 h and the HL_ ([2]; intragastric gavage 10 mg/kg, No. 3) was 3.70 h.

From patent EP4813989A1, “CRYSTAL, PHARMACEUTICAL COMPOSITION, PREPARATION METHOD THEREFOR, AND USE THEREOF” (TYK Medicines, Inc., priority 2023, dated 2025)
